{"source": "patent US11370847B2", "about": "“Single domain antibodies directed against intracellular antigens” (Singh Biotechnology, LLC, priority 2014, dated 2022)", "key": {"MDA-MB-231 cells": {"tested_on": "MDA-MB-231 cells", "assay": "MTT proliferation assay, MDA-MB-231;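 for all read-outs here: proliferation of cultured human cancer cells read by MTT, with treated groups compared against a vehicle control group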", "assay_type": "cell-based, human", "details": "MDA-MB-231; for Absorbance: single experiments"}, "HT1080 cells": {"tested_on": "HT1080 cells", "assay": "MTT proliferation assay, HT1080", "assay_type": "cell-based, human", "details": "HT1080, 72 hr"}, "STAT3 [1]": {"tested_on": "STAT3", "assay": "STAT3 reporter GloResponse SIE-luc2P/HEK293 assay, IL-6 induction;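 note: SIE-luc2P/HEK293 reporter cells stimulated with IL-6 at 40 ng/mL (EC80) after pretreatment, luciferase luminescence (RLU) read the following day, triplicate wells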", "assay_type": "cell-based", "details": "for decrease in RLU: highest concentration (55.8 μg/mL)"}, "STAT3 [2]": {"tested_on": "STAT3", "assay": "Immunofluorescence of Stat3 nuclear translocation after IL-6", "assay_type": "cell-based", "details": "HEp-2, MDA-MB-231 and PANC-1 cells; sdAb 1:10 overnight; 100 ng/ml IL-6 15 min", "description": "The cells were grown to confluence on chamber slides. […] As a negative control, no antibody was added to duplicate chambers. The slides were washed, and either serum-free media alone or 100 ng/ml recombinant human IL-6 (Peprotech, Rocky Hill, N.J.) in serum free media was added to the slides for 15 min at 37° C. The media was then removed and the chamber slides were fixed in ice cold 100% methanol for 10 min at −20° C.\nImmunofluorescence assays were performed on the fixed slides. First, the slides were blocked with 3% BSA in PBS was done for one hour at room temperature. The primary antibody, Stat3(124H6) mouse monoclonal antibody (Cell Signaling Technology, Danvers, Mass.) was added to the slides at a 1:1000 dilution overnight in dark box at 4° C. The following day, the slides were washed and the secondary Alexa Fluor 488 anti-mouse IgG antibody (Cell Signaling Technology) was added at a 1:500 dilution and incubated for 1 hour at room temperature. The slides were then washed, mounted with mounting media and viewed with a fluorescence microscope."}, "PANC-1 cells": {"tested_on": "PANC-1 cells", "assay": "MTT proliferation assay, PANC-1", "details": "SBT-100 100 μg/ml alone, experiment with Gemcitabine Hydrochloride (Biovision #1759), 72 hours"}}, "note": "Where “and” joins values, the source holds several entries; their conditions need not be identical. Equal values may be shown once.", "data": [{"substance": "anti-STAT3 VHH13: anti-STAT3 single-domain antibody, SEQ ID NO:3; bacterially produced, referred to as SBT-100", "values": [{"measurement": "Average Absorbance", "setting": "MDA-MB-231 cells; 50 μg", "value": 0.82}, {"measurement": "Average % Inhibition", "setting": "MDA-MB-231 cells; 50 μg (50.0 μg/ml), listed as Anti-STAT3 Bacterial VHH13", "value": 32.6, "unit": "%"}, {"measurement": "Absorbance", "setting": "MDA-MB-231 cells; 50 μg, listed as Anti-STAT3 Bacterial VHH13", "value": "0.82 and 0.99 and 0.64"}, {"measurement": "Average Absorbance", "setting": "MDA-MB-231 cells; 100 μg", "value": 0.11}, {"measurement": "Absorbance", "setting": "MDA-MB-231 cells; 100 μg, listed as Anti-STAT3 Bacterial VHH13", "value": "0.07 and 0.12 and 0.14"}, {"measurement": "IC50", "setting": "HT1080 cells", "value": "IC50 = 33 μg/ml"}, {"measurement": "effect on IL-6 induction of the STAT3 reporter", "setting": "STAT3 [1]; 24 and 48 hours treatment, VHH13 and VHH69 at highest concentration, VHH14 at both concentrations", "value": "Inhibition of IL-6"}, {"measurement": "decrease in RLU", "setting": "STAT3 [1]; 24 hours treatment prior to IL-6 induction", "value": "greater than 10 fold"}, {"measurement": "decrease in RLU", "setting": "STAT3 [1]; 48 hours treatment prior to IL-6 induction", "value": "greater than 1,000 fold"}, {"measurement": "translocation of Stat3 to the nucleus following IL-6 treatment", "setting": "STAT3 [2]", "value": "blocks the translocation of Stat3 to the nucleus"}, {"measurement": "Abs", "setting": "PANC-1 cells", "value": 0.381}]}]}
